In ChEMBL document CHEMBL1142214, “Synergistic interaction between phenothiazines and antimicrobial agents against Burkholderia pseudomallei” (2007):
In brackets after ≈: the same amount, converted by molar mass. Activity calls are given as the source filed them. The rule behind the calls is not given here.

How the values were obtained:
[1] = test system: Burkholderia pseudomallei; test: Antimicrobial activity against Burkholderia pseudomallei KHW in presence of 3.9 uM prochlorperazine; type: functional
[2] = test system: Burkholderia pseudomallei; test: Antimicrobial activity against Burkholderia pseudomallei KHW in presence of 62.5 uM omeprazole; type: functional
[3] = test system: Burkholderia pseudomallei; test: Antimicrobial activity against Burkholderia pseudomallei KHW in presence of 15.6 uM prochlorperazine; type: functional
[4] = test system: Burkholderia pseudomallei; test: Antimicrobial activity against Burkholderia pseudomallei KHW in presence of 7.8 uM prochlorperazine; type: functional
[5] = test system: Burkholderia pseudomallei; test: Antimicrobial activity against Burkholderia pseudomallei KHW in presence of 7.8 uM promazine; type: functional
[6] = test system: Burkholderia pseudomallei; test: Antimicrobial activity against Burkholderia pseudomallei KHW in presence of 500 uM chlorpromazine; type: functional
[7] = test system: Burkholderia pseudomallei; test: Antimicrobial activity against Burkholderia pseudomallei KHW in presence of 500 uM prochlorperazine; type: functional
[8] = test system: Burkholderia pseudomallei; test: Antimicrobial activity against Burkholderia pseudomallei KHW in presence of 7.8 uM omeprazole; type: functional
[9] = test system: Burkholderia pseudomallei; test: Antimicrobial activity against Burkholderia pseudomallei KHW in presence of 125 uM chlorpromazine; type: functional
[10] = test system: Burkholderia pseudomallei; test: Antimicrobial activity against Burkholderia pseudomallei KHW in presence of 15.6 uM omeprazole; type: functional
[11] = test system: Burkholderia pseudomallei; test: Antimicrobial activity against Burkholderia pseudomallei KHW; type: functional
[12] = test system: Burkholderia pseudomallei; test: Antimicrobial activity against Burkholderia pseudomallei KHW in presence of 3.9 uM omeprazole; type: functional
[13] = test system: Burkholderia pseudomallei; test: Antimicrobial activity against Burkholderia pseudomallei KHW in presence of 3.9 uM promazine; type: functional
[14] = test system: Burkholderia pseudomallei; test: Antimicrobial activity against Burkholderia pseudomallei KHW in presence of 1000 uM chlorpromazine; type: functional
[15] = test system: Burkholderia pseudomallei; test: Antimicrobial activity against Burkholderia pseudomallei KHW in presence of 31.3 uM omeprazole; type: functional
[16] = test system: Burkholderia pseudomallei; test: Antimicrobial activity against Burkholderia pseudomallei KHW in presence of 31.3 uM prochlorperazine; type: functional
[17] = test system: Burkholderia pseudomallei; test: Antimicrobial activity against Burkholderia pseudomallei KHW in presence of 250 uM promazine; type: functional
[18] = test system: Burkholderia pseudomallei; test: Antimicrobial activity against Burkholderia pseudomallei KHW in presence of 7.8 uM chlorpromazine; type: functional
[19] = test system: Burkholderia pseudomallei; test: Antimicrobial activity against Burkholderia pseudomallei KHW in presence of 3.9 uM chlorpromazine; type: functional
[20] = test system: Burkholderia pseudomallei; test: Antimicrobial activity against Burkholderia pseudomallei KHW in presence of 31.3 uM promazine; type: functional
[21] = test system: Burkholderia pseudomallei; test: Antimicrobial activity against Burkholderia pseudomallei KHW in presence of 15.6 uM chlorpromazine; type: functional
[22] = test system: Burkholderia pseudomallei; test: Antimicrobial activity against Burkholderia pseudomallei KHW in presence of 62.5 uM promazine; type: functional
[23] = test system: Burkholderia pseudomallei; test: Antimicrobial activity against Burkholderia pseudomallei KHW in presence of 1000 uM promazine; type: functional
[24] = test system: Burkholderia pseudomallei; test: Antimicrobial activity against Burkholderia pseudomallei KHW in presence of 15.6 uM promazine; type: functional
[25] = test system: Burkholderia pseudomallei; test: Antimicrobial activity against Burkholderia pseudomallei KHW in presence of 1000 uM prochlorperazine; type: functional
[26] = test system: Burkholderia pseudomallei; test: Antimicrobial activity against Burkholderia pseudomallei KHW in presence of 125 uM omeprazole; type: functional
[27] = test system: Burkholderia pseudomallei; test: Antimicrobial activity against Burkholderia pseudomallei KHW in presence of 500 uM omeprazole; type: functional
[28] = test system: Burkholderia pseudomallei; test: Antimicrobial activity against Burkholderia pseudomallei KHW in presence of 250 uM prochlorperazine; type: functional
[29] = test system: Burkholderia pseudomallei; test: Antimicrobial activity against Burkholderia pseudomallei KHW in presence of 31.3 uM chlorpromazine; type: functional
[30] = test system: Burkholderia pseudomallei; test: Antimicrobial activity against Burkholderia pseudomallei KHW in presence of 62.5 uM chlorpromazine; type: functional
[31] = test system: Burkholderia pseudomallei; test: Antimicrobial activity against Burkholderia pseudomallei KHW in presence of 125 uM prochlorperazine; type: functional
[32] = test system: Burkholderia pseudomallei; test: Antimicrobial activity against Burkholderia pseudomallei KHW in presence of 62.5 uM prochlorperazine; type: functional
[33] = test system: Burkholderia pseudomallei; test: Antimicrobial activity against Burkholderia pseudomallei KHW in presence of 125 uM promazine; type: functional
[34] = test system: Burkholderia pseudomallei; test: Antimicrobial activity against Burkholderia pseudomallei KHW in presence of 250 uM omeprazole; type: functional
[35] = test system: Burkholderia pseudomallei; test: Antimicrobial activity against Burkholderia pseudomallei KHW in presence of 1000 uM omeprazole; type: functional
[36] = test system: Burkholderia pseudomallei; test: Antimicrobial activity against Burkholderia pseudomallei KHW in presence of 250 uM chlorpromazine; type: functional
[37] = test system: Burkholderia pseudomallei; test: Attenuation of Burkholderia pseudomallei KHW cytotoxicity in A549 cells at 8 ug/ml in presence of 250 uM prochlorperazine; type: functional, organism-based
[38] = test system: Burkholderia pseudomallei; test: Attenuation of A549 cell invasion by Burkholderia pseudomallei KHW at 8 ug/ml; type: functional, organism-based
[39] = test system: Burkholderia pseudomallei; test: Attenuation of Burkholderia pseudomallei KHW cytotoxicity in THP1 cells at 128 ug/ml; type: functional, organism-based; conditions: THP-1
[40] = test system: Burkholderia pseudomallei; test: Attenuation of THP1 cell invasion by Burkholderia pseudomallei KHW at 8 ug/ml; type: functional, organism-based; conditions: THP-1
[41] = test system: Burkholderia pseudomallei; test: Attenuation of THP1 cell invasion by Burkholderia pseudomallei KHW at 8 ug/ml in presence of 250 uM prochlorperazine; type: functional, organism-based; conditions: THP-1
[42] = test system: Burkholderia pseudomallei; test: Attenuation of THP1 cell invasion by Burkholderia pseudomallei KHW at 8 ug/ml in presence of 500 uM chlorpromazine; type: functional, organism-based; conditions: THP-1
[43] = test system: Burkholderia pseudomallei; test: Attenuation of Burkholderia pseudomallei KHW cytotoxicity in A549 cells at 128 ug/ml; type: functional, organism-based
[44] = test system: Burkholderia pseudomallei; test: Attenuation of A549 cell invasion by Burkholderia pseudomallei KHW at 8 ug/ml in presence of 500 uM chlorpromazine; type: functional, organism-based
[45] = test system: Burkholderia pseudomallei; test: Attenuation of Burkholderia pseudomallei KHW cytotoxicity in THP1 cells at 8 ug/ml in presence of 250 uM prochlorperazine; type: functional, organism-based; conditions: THP-1
[46] = test system: Burkholderia pseudomallei; test: Attenuation of Burkholderia pseudomallei KHW cytotoxicity in A549 cells at 8 ug/ml in presence of 500 uM chlorpromazine; type: functional, organism-based
[47] = test system: Burkholderia pseudomallei; test: Attenuation of THP1 cell invasion by Burkholderia pseudomallei KHW at 128 ug/ml; type: functional, organism-based; conditions: THP-1
[48] = test system: Burkholderia pseudomallei; test: Attenuation of A549 cell invasion by Burkholderia pseudomallei KHW at 8 ug/ml in presence of 250 uM prochlorperazine; type: functional, organism-based
[49] = test system: Burkholderia pseudomallei; test: Attenuation of Burkholderia pseudomallei KHW cytotoxicity in THP1 cells at 8 ug/ml in presence of 500 uM chlorpromazine; type: functional, organism-based; conditions: THP-1
[50] = test system: Burkholderia pseudomallei; test: Attenuation of A549 cell invasion by Burkholderia pseudomallei KHW at 128 ug/ml; type: functional, organism-based

C[C@H]1COc2c(N3CCN(C)CC3)c(F)cc3c(=O)c(C(=O)O)cn1c23.C[C@H]1COc2c(N3CCN(C)CC3)c(F)cc3c(=O)c(C(=O)O)cn1c23.O [LEVOFLOXACIN]
MIC [1]: 2 µg/mL
MIC [2]: 2 µg/mL
MIC [3]: 2 µg/mL
MIC [4]: 2 µg/mL
MIC [5]: 2 µg/mL
MIC [6]: < 0.25 µg/mL
MIC [7]: < 0.25 µg/mL
MIC [8]: 2 µg/mL
MIC [9]: 2 µg/mL
MIC [10]: 2 µg/mL
MIC [11]: 2 µg/mL
MIC [12]: 2 µg/mL
MIC [13]: 2 µg/mL
MIC [14]: < 0.25 µg/mL
MIC [15]: 2 µg/mL
MIC [16]: 2 µg/mL
MIC [17]: 2 µg/mL
MIC [18]: 2 µg/mL
MIC [19]: 2 µg/mL
MIC [20]: 2 µg/mL
MIC [21]: 2 µg/mL
MIC [22]: 2 µg/mL
MIC [23]: < 0.25 µg/mL
MIC [24]: 2 µg/mL
MIC [25]: < 0.25 µg/mL
MIC [26]: 2 µg/mL
MIC [27]: 2 µg/mL
MIC [28]: 2 µg/mL
MIC [29]: 2 µg/mL
MIC [30]: 2 µg/mL
MIC [31]: 2 µg/mL
MIC [32]: 2 µg/mL
MIC [33]: 2 µg/mL
MIC [34]: 2 µg/mL

CN[C@@H]1[C@H](O)[C@H](NC)[C@H]2O[C@@]3(O)C(=O)C[C@@H](C)O[C@H]3O[C@@H]2[C@H]1O [SPECTINOMYCIN]
MIC [1]: 256 µg/mL
MIC [2]: 256 µg/mL
MIC [35]: 32 µg/mL
MIC [3]: 256 µg/mL
MIC [4]: 256 µg/mL
MIC [5]: 256 µg/mL
MIC [6]: 32 µg/mL
MIC [7]: < 0.25 µg/mL
MIC [8]: 256 µg/mL
MIC [9]: 256 µg/mL
MIC [10]: 256 µg/mL
MIC [11]: 256 µg/mL (≈ 770 µM)
MIC [12]: 256 µg/mL
MIC [13]: 256 µg/mL
MIC [14]: < 0.25 µg/mL
MIC [15]: 256 µg/mL
MIC [16]: 256 µg/mL
MIC [18]: 256 µg/mL
MIC [19]: 256 µg/mL
MIC [20]: 256 µg/mL
MIC [21]: 256 µg/mL
MIC [22]: 256 µg/mL
MIC [23]: < 0.25 µg/mL
MIC [24]: 256 µg/mL
MIC [25]: < 0.25 µg/mL
MIC [26]: 256 µg/mL
MIC [28]: 32 µg/mL
MIC [29]: 256 µg/mL
MIC [30]: 256 µg/mL
MIC [31]: 32 µg/mL
MIC [32]: 128 µg/mL
MIC [36]: 128 µg/mL
MIC [33]: 256 µg/mL

CC[C@H]1OC(=O)[C@H](C)[C@@H](O[C@H]2C[C@@](C)(OC)[C@@H](O)[C@H](C)O2)[C@H](C)[C@@H](O[C@@H]2O[C@H](C)C[C@H](N(C)C)[C@H]2O)[C@](C)(O)C[C@@H](C)C(=O)[C@H](C)[C@@H](O)[C@]1(C)O [ERYTHROMYCIN]
MIC [1]: 128 µg/mL
MIC [2]: 128 µg/mL
Activity [37]: Active
MIC [35]: < 0.25 µg/mL
MIC [3]: 64 µg/mL
MIC [4]: 128 µg/mL
MIC [5]: 128 µg/mL
Activity [38]: inactive
Activity [39]: Active
MIC [6]: 8 µg/mL
Activity [40]: inactive
Activity [41]: Active
MIC [7]: 8 µg/mL
MIC [8]: 128 µg/mL
MIC [9]: 128 µg/mL
MIC [10]: 128 µg/mL
MIC [11]: 128 µg/mL (≈ 174 µM)
MIC [12]: 128 µg/mL
MIC [13]: 128 µg/mL
Activity [42]: Active
MIC [14]: < 0.25 µg/mL
Activity [43]: Active
Activity [44]: Active
MIC [15]: 128 µg/mL
MIC [16]: 64 µg/mL
MIC [17]: 64 µg/mL
MIC [18]: 128 µg/mL
MIC [19]: 128 µg/mL
Activity [45]: Active
MIC [20]: 128 µg/mL
Activity [46]: Active
MIC [21]: 128 µg/mL
MIC [22]: 128 µg/mL
MIC [23]: < 0.25 µg/mL
MIC [24]: 128 µg/mL
MIC [25]: 8 µg/mL
MIC [26]: 128 µg/mL
MIC [27]: 128 µg/mL
MIC [28]: 8 µg/mL
MIC [29]: 128 µg/mL
MIC [30]: 128 µg/mL
Activity [47]: Active
Activity [48]: Active
MIC [33]: 128 µg/mL
Activity [49]: Active
MIC [34]: 128 µg/mL
Activity [50]: Active
